Reference: US8791107B2, “N-substituted oxazinopteridines and oxazinopteridinones” (Takeda Pharmaceutical Company Limited, priority 2011, dated 2014)

These molecules were tested against T1, PI3Kδ (Homo sapiens, UniProt O00329) (assay: PI3Kδ inhibition, modified PIK3CD Adapta TR-FRET assay). Conditions: recombinant GST-tagged full length PIK3CD co-expressed with PIK3R1 (p85α); 2 μM ATP, 50 μM PIP2; read-out: PI3Kδ Inhibition (pIC50) (converted).
T1 construct: The protein is full length and co-expressed with untagged PIK3R1; GST; purchased Invitrogen PV5274
T1 sequence (O00329 whole entry): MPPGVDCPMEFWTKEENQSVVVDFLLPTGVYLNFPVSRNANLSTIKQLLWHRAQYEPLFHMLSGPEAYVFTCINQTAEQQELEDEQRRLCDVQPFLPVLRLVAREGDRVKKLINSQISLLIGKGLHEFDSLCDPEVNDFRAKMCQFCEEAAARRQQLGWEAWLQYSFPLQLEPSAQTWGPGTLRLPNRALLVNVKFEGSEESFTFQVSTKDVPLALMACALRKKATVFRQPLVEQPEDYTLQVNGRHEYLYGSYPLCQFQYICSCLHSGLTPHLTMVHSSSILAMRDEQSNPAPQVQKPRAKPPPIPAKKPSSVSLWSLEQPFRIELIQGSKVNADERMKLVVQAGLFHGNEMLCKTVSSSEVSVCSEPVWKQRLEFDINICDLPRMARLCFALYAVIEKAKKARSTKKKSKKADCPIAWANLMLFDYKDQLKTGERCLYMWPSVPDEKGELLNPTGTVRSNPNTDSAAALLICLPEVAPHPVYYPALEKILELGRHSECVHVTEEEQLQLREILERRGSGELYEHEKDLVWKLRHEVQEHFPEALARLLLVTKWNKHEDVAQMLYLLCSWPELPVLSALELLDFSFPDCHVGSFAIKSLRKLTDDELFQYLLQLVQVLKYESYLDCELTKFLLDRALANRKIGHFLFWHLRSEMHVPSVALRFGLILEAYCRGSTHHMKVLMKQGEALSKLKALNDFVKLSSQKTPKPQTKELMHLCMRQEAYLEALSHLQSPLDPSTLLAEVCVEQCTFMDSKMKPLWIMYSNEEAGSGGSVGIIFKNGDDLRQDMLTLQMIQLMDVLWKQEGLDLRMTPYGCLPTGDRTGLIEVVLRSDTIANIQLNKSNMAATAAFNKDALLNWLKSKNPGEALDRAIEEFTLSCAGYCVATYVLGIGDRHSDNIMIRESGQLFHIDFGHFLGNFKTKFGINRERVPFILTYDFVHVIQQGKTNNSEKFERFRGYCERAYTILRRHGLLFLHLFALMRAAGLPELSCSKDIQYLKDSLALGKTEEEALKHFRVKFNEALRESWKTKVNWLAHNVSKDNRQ
T1 sequence (P27986 whole entry partner): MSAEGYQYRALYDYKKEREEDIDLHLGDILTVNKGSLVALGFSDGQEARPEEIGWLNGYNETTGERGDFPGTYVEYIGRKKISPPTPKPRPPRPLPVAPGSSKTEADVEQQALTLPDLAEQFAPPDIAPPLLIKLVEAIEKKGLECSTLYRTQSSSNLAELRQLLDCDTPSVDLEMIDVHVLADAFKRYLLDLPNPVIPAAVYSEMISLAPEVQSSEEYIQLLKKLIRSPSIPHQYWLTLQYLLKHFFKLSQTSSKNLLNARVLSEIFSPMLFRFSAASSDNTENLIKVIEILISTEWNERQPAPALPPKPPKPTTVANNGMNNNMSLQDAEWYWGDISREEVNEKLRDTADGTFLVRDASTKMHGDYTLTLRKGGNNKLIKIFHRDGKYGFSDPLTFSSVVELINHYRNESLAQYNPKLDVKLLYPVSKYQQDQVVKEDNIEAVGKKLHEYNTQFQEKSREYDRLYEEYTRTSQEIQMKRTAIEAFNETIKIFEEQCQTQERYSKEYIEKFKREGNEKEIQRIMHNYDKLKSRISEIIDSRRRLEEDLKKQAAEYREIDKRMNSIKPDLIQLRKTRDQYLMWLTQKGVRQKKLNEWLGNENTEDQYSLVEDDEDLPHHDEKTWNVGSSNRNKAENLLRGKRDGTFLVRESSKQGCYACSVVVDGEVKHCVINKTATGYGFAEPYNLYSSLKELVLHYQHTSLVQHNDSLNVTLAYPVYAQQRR
Type: biochemical
Method in brief: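 Inhibition was derived from % conversion against positive and negative controls, with ADP read by Adapta Eu-antibody/tracer TR-FRET. Room-temperature reactions used GST-PIK3CD/p85α in HEPES pH 7.5 buffer (MgCl2, EGTA, NaCl, CHAPS, fresh DTT), 1% DMSO final and 12 concentrations. They were initiated by adding 2 μM ATP/50 μM PIP2 solution.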

| SMILES | IC50 |
| --- | --- |
| O=C(Cc1coc2ccccc12)N1CC2COCCN2c2nc(-c3cccc4[nH]ccc34)ncc21 (stereo not shown) [Example 52, 1-(2-(1H-indol-4-yl)-6a,7,9,10-tetrahydro-[1,4]oxazino[3,4-h]pteridin-5(6H)-yl)-2-(benzofuran-3-yl)ethanone] | 398 nM |
| COc1cc(C(N)=O)ccc1CN1CC2COCCN2c2nc(-c3cccc4[nH]ccc34)ncc21 (stereo not shown) [Example 79, 4-((2-(1H-indol-4-yl)-6a,7,9,10-tetrahydro-[1,4]oxazino[3,4-h]pteridin-5(6H)-yl)methyl)-3-methoxybenzamide] | 50.1 nM |
| COc1cccc2c(-c3ncc4c(n3)N3CCOCC3CN4)c[nH]c12 (stereo not shown) [Example 9, 2-(7-methoxy-1H-indol-3-yl)-5,6,6a,7,9,10-hexahydro-[1,4]oxazino[3,4-h]pteridine] | > 10000 nM |
| c1cc(-c2ncc3c(n2)N2CCOCC2CN3Cc2ncco2)c2cc[nH]c2c1 (stereo not shown) [Example 39, 2-(1H-indol-4-yl)-5-(oxazol-2-ylmethyl)-5,6,6a,7,9,10-hexahydro-[1,4]oxazino[3,4-h]pteridine] | 20 nM |
| N#Cc1ccc(F)c(CN2CC3COCCN3c3nc(-c4cccc5[nH]ccc45)ncc32)c1 (stereo not shown) [Example 60, 3-((2-(1H-indol-4-yl)-6a,7,9,10-tetrahydro-[1,4]oxazino[3,4-h]pteridin-5(6H)-yl)methyl)-4-fluorobenzonitrile] | 31.6 nM |
| O=C(O)CN1C[C@@H]2COCCN2c2nc(-c3cccc4[nH]ccc34)ncc21 [Example 69, (R)-2-(2-(1H-indol-4-yl)-6a,7,9,10-tetrahydro-[1,4]oxazino[3,4-h]pteridin-5(6H)-yl)acetic acid] | 2510 nM |
| CCc1cc(CN2C[C@@H]3COCCN3c3nc(-c4cccc5[nH]ccc45)ncc32)on1 [Example 188, (R)-5-((3-ethylisoxazol-5-yl)methyl)-2-(1H-indol-4-yl)-5,6,6a,7,9,10-hexahydro-[1,4]oxazino[3,4-h]pteridine] | 39.8 nM |
| COc1cccc(CC(=O)N2CC3COCCN3c3nc(-c4cccc5[nH]ccc45)ncc32)c1 (stereo not shown) [Example 50, 1-(2-(1H-indol-4-yl)-6a,7,9,10-tetrahydro-[1,4]oxazino[3,4-h]pteridin-5(6H)-yl)-2-(3-methoxyphenyl)ethanone] | 316 nM |
| c1cc(-c2ncc3c(n2)N2CCOCC2CN3Cc2nnc(C3CC3)o2)c2cc[nH]c2c1 (stereo not shown) [Example 81, 5-((5-cyclopropyl-1,3,4-oxadiazol-2-yl)methyl)-2-(1H-indol-4-yl)-5,6,6a,7,9,10-hexahydro-[1,4]oxazino[3,4-h]pteridine] | 15.8 nM |
| COC(=O)CCCN1C[C@@H]2COCCN2c2nc(-c3cccc4[nH]ccc34)ncc21 [Example 195, (R)-methyl 4-(2-(1H-indol-4-yl)-6a,7,9,10-tetrahydro-[1,4]oxazino[3,4-h]pteridin-5(6H)-yl)butanoate] | 3.16 nM |
| CC(C)(C)C(N)CCN1C[C@@H]2COCCN2c2nc(-c3cccc4[nH]ccc34)ncc21 (stereo partly drawn) [Example 210, 1-((R)-2-(1H-indol-4-yl)-6a,7,9,10-tetrahydro-[1,4]oxazino[3,4-h]pteridin-5(6H)-yl)-4,4-dimethylpentan-3-amine] | > 10000 nM |
| Cn1cc(CN2C[C@@H]3COCCN3c3nc(-c4cccc5[nH]ccc45)ncc32)cn1 [Example 182, (R)-2-(1H-indol-4-yl)-5-((1-methyl-1H-pyrazol-4-yl)methyl)-5,6,6a,7,9,10-hexahydro-[1,4]oxazino[3,4-h]pteridine] | 15.8 nM |
| COc1cncc(N2C[C@@H]3COCCN3c3nc(-c4cccc5[nH]ccc45)ncc32)c1 [Example 201, (R)-2-(1H-indol-4-yl)-5-(5-methoxypyridin-3-yl)-5,6,6a,7,9,10-hexahydro-[1,4]oxazino[3,4-h]pteridine] | 12.6 nM |
| c1ccc(N2CC3COCCN3c3nc(-c4cccc5[nH]ccc45)ncc32)cc1 (stereo not shown) [Example 181, 2-(1H-indol-4-yl)-5-phenyl-5,6,6a,7,9,10-hexahydro-[1,4]oxazino[3,4-h]pteridine] | 79.4 nM |
| O=C(CN1C[C@@H]2COCCN2c2nc(-c3cncc4[nH]ccc34)ncc21)NCC1CCOCC1 [Example 174, (R)-2-(2-(1H-pyrrolo[2,3-c]pyridin-4-yl)-6a,7,9,10-tetrahydro-[1,4]oxazino[3,4-h]pteridin-5(6H)-yl)-N-((tetrahydro-2H-pyran-4-yl)methyl)acetamide] | 7.94 nM |

Other lines, results leading:

| IC50 | SMILES |
| --- | --- |
| 794 nM | COC(=O)c1ccc(C)cc1CN1C[C@@H]2COCCN2c2nc(-c3cccc4[nH]ccc34)ncc21 [Example 165, (R)-methyl 2-((2-(1H-indol-4-yl)-6a,7,9,10-tetrahydro-[1,4]oxazino[3,4-h]pteridin-5(6H)-yl)methyl)-4-methylbenzoate] |
| 5.01 nM | CNC(=O)Nc1ccc(-c2ncc3c(n2)N2CCOCC2C(=O)N3CC2CC2(F)F)cc1 (stereo not shown) [Example 93, 1-(4-(5-((2,2-difluorocyclopropyl)methyl)-6-oxo-5,6,6a,7,9,10-hexahydro-[1,4]oxazino[3,4-h]pteridin-2-yl)phenyl)-3-methylurea] |
| 631 nM | CS(=O)(=O)c1ccc(CN2C(=O)C3COCCN3c3nc(-c4cccc(S(N)(=O)=O)c4)ncc32)cc1 (stereo not shown) [Example 115, 3-(5-(4-(methylsulfonyl)benzyl)-6-oxo-5,6,6a,7,9,10-hexahydro-[1,4]oxazino[3,4-h]pteridin-2-yl)benzenesulfonamide] |
| 10 nM | CS(=O)(=O)c1ccc(CN2CC3COCCN3c3nc(-c4cccc5[nH]ccc45)ncc32)cc1 (stereo not shown) [Example 19, 2-(1H-indol-4-yl)-5-(4-(methylsulfonyl)benzyl)-5,6,6a,7,9,10-hexahydro-[1,4]oxazino[3,4-h]pteridine] |
| 31.6 nM | CC(=O)Nc1ccc(-c2ncc3c(n2)N2CCOCC2C(=O)N3Cc2ccc(S(C)(=O)=O)cc2)cc1 (stereo not shown) [Example 112, N-(4-(5-(4-(methylsulfonyl)benzyl)-6-oxo-5,6,6a,7,9,10-hexahydro-[1,4]oxazino[3,4-h]pteridin-2-yl)phenyl)acetamide] |
| 15.8 nM | CC(C)(O)c1ccc(CN2CC3COCCN3c3nc(-c4cccc5[nH]ccc45)ncc32)cc1 (stereo not shown) [Example 13, 2-(4-((2-(1H-indol-4-yl)-6a,7,9,10-tetrahydro-[1,4]oxazino[3,4-h]pteridin-5(6H)-yl)methyl)phenyl)propan-2-ol] |
| 200 nM | CS(=O)(=O)Nc1ccc(-c2ncc3c(n2)N2CCOCC2C(=O)N3Cc2ccc(S(C)(=O)=O)cc2)cc1 (stereo not shown) [Example 102, N-(4-(5-(4-(methylsulfonyl)benzyl)-6-oxo-5,6,6a,7,9,10-hexahydro-[1,4]oxazino[3,4-h]pteridin-2-yl)phenyl)methanesulfonamide] |
| 398 nM | CS(=O)(=O)c1ccc(CN2C(=O)C3COCCN3c3nc(-c4ccc(C(N)=O)cc4)ncc32)cc1 (stereo not shown) [Example 107, 4-(5-(4-(methylsulfonyl)benzyl)-6-oxo-5,6,6a,7,9,10-hexahydro-[1,4]oxazino[3,4-h]pteridin-2-yl)benzamide] |
| 39.8 nM | Cc1ccc([C@H](C)N2C(=O)[C@@H]3COCCN3c3nc(-c4cccc5[nH]ccc45)ncc32)cc1 (single isomer, unassigned) [Example 153] |
| 2510 nM | CS(=O)(=O)c1ccc(CN2C(=O)C3COCCN3c3nc(-c4ccc5[nH]c(=O)[nH]c5c4)ncc32)cc1 (stereo not shown) [Example 119, 5-(4-(methylsulfonyl)benzyl)-2-(2-oxo-2,3-dihydro-1H-benzo[d]imidazol-5-yl)-6a,7,9,10-tetrahydro-[1,4]oxazino[3,4-h]pteridin-6(5H)-one] |
